One assay addresses T1, human H3 receptor (Homo sapiens, UniProt Q9Y5N1).
T1 construct: expressed in transfected cells
As to the kind of experiment: H3 receptor binding (N-[3H]-α-methylhistamine displacement). Particulars: membranes of SK-N-MC cells expressing cloned human H3 receptor, 0.8 nM N-[3H]-α-methylhistamine, 60 min at 25° C.

The target in another assay is T2, Rat SERT (Rattus norvegicus, UniProt P31652).
T2 construct: A rat brain without cerebellum (Zivic Laboratories, Inc.—Pittsburgh, Pa.) was homogenized; tissue Zivic Laboratories, Inc; host or cells: rat brain without cerebellum, membranes
As to the kind of experiment: Rat brain SERT binding ([3H]-citalopram displacement). The following applies: rat brain membranes without cerebellum, 0.6 nM [3H]-citalopram, 60 min at 25° C.; read-out: Rat SERT Ki. The method, then:
The supernatant was removed and re-centrifuged at 15,000 rpm for 30 min. […] Membranes were incubated with 0.6 nM [^3H]-Citalopram plus/minus test compounds for 60 min at 25° C. and harvested by rapid filtration over GF/C glass fiber filters (pretreated with 0.3% polyethylenimine) followed by four washes with ice-cold buffer.

T2 sequence (P31652 whole entry): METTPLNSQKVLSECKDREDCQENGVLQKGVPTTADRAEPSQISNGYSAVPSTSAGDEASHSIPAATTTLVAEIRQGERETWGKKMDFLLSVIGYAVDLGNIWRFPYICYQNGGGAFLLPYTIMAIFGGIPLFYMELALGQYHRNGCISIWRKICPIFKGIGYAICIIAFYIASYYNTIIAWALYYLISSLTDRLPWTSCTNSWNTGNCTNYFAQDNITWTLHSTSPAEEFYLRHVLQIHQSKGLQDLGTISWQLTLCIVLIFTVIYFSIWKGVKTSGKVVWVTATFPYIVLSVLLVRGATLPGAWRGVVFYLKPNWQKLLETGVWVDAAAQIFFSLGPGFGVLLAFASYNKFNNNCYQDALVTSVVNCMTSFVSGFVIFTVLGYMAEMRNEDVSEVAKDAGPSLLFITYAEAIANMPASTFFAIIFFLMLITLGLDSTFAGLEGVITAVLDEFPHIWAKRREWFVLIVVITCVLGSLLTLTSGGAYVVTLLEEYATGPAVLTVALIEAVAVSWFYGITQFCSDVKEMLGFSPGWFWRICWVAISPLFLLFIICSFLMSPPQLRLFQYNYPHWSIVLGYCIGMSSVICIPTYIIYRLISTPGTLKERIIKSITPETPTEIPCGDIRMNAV
T1 sequence (Q9Y5N1 whole entry): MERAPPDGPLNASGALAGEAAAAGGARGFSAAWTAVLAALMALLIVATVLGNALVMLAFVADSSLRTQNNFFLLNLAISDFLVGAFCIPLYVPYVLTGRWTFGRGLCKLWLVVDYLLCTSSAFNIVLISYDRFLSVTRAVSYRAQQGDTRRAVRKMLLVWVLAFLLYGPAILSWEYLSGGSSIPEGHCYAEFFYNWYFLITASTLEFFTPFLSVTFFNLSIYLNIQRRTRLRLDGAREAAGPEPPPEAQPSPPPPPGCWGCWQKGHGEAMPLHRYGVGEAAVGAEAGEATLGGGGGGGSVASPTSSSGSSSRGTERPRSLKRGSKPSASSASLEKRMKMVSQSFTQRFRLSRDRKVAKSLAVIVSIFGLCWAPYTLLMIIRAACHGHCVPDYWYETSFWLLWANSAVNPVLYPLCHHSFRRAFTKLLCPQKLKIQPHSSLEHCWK

As a reminder, the Ki is the dissociation constant of the complex between target and ligand, obtained from inhibition or displacement. For `COc1ccc(C2CN(C)Cc3cc(OCC4CCNCC4)ccc32)cc1` (centres unmarked) [Example 78, 4-(4-Methoxy-phenyl)-2-methyl-7-(piperidin-4-ylmethoxy)-1,2,3,4-tetrahydro-isoquinoline], the Ki at human H3 receptor is 96 nM; on Rat SERT, 2 nM.
In the case of `COc1ccc(C2CN(C)Cc3cc(OCCCN=C4N(C)CCCN4C)ccc32)cc1` (centres unmarked) [Example 15, (1,3-Dimethyl-tetrahydro-pyrimidin-2-ylidene)-{3-[4-(4-methoxy-phenyl)-2-methyl-1,2,3,4-tetrahydro-isoquinolin-7-yloxy]-propyl}-amine], the Ki is 499 nM at human H3 receptor and 11 nM on Rat SERT.
`COc1ccc(C2CN(C)Cc3cc(OC4CCN(C(C)C)CC4)ccc32)cc1F` (centres unmarked) [Example 120, 4-(3-Fluoro-4-methoxy-phenyl)-7-(1-isopropyl-piperidin-4-yloxy)-2-methyl-1,2,3,4-tetrahydro-isoquinoline]: the figures for the Ki on human H3 receptor and at Rat SERT were 1 nM and 10 nM, respectively.
`COc1cccc(C2CN(C)Cc3cc(OC4CCN(C5CCCC5)CC4)ccc32)c1` (centres unmarked) [Example 101, 7-(1-Cyclopentyl-piperidin-4-yloxy)-4-(3-methoxy-phenyl)-2-methyl-1,2,3,4-tetrahydro-isoquinoline]: the Ki is 2 nM on human H3 receptor and 18 nM at Rat SERT.
Turning to `COc1ccc(C2CN(C)Cc3cc(OC[C@H]4CN(C5CC5)CCO4)ccc32)cc1` (single isomer, unassigned) [Example 261B, 7-(4-Cyclopropyl-morpholin-2R-ylmethoxy)-4-(4-methoxy-phenyl)-2-methyl-1,2,3,4-tetrahydro-isoquinoline], the figures for the Ki on human H3 receptor and at Rat SERT were 64 nM and 17 nM, respectively.
On the same counts, the results for `COc1ccc(C2CN(C)Cc3cc(OCC4CCN(C5CCC5)CC4)ccc32)c(F)c1` (centres unmarked) [Example 113, 7-(1-Cyclobutyl-piperidin-4-ylmethoxy)-4-(2-fluoro-4-methoxy-phenyl)-2-methyl-1,2,3,4-tetrahydro-isoquinoline] are 8 nM and 10 nM.
For `COc1ccc(C2CN(CCCO)Cc3cc(OCCCN4CCCCC4)ccc32)cc1` (centres unmarked) [Example 70, 3-[4-(4-Methoxy-phenyl)-7-(3-piperidin-1-yl-propoxy)-3,4-dihydro-1H-isoquinolin-2-yl]-propan-1-ol], in that order: 1 nM and 49 nM.
On the same counts, the results for `CCN1CCC(COc2ccc3c(c2)CN(C)CC3c2ccc(SC)cc2)CC1` (centres unmarked) [Example 105, 7-(1-Ethyl-piperidin-4-ylmethoxy)-2-methyl-4-(4-methylsulfanyl-phenyl)-1,2,3,4-tetrahydro-isoquinoline] are 5 nM and 6 nM.
As for `COc1ccc(C2CN(C)Cc3cc(OCCCN4CCN(Cc5cccs5)CC4)ccc32)cc1` (centres unmarked) [Example 201, 4-(4-Methoxy-phenyl)-2-methyl-7-[3-(4-thiophen-2-ylmethyl-piperazin-1-yl)-propoxy]-1,2,3,4-tetrahydro-isoquinoline], the results for the Ki on human H3 receptor and at Rat SERT were 134 nM and 4 nM, respectively.
`COc1ccc(C2CN(C)Cc3cc(OC[C@H]4CN(C5CC5)CCO4)ccc32)cc1` (single isomer, unassigned) [Example 261A, 7-(4-Cyclopropyl-morpholin-2R-ylmethoxy)-4-(4-methoxy-phenyl)-2-methyl-1,2,3,4-tetrahydro-isoquinoline]: the Ki on human H3 receptor is 73 nM; on Rat SERT, 32 nM.
Take `COc1ccc(C2CN(C)Cc3cc(OCCCN4CCS(=O)(=O)CC4)ccc32)cc1` (centres unmarked) [Example 27, 7-[3-(1,1-Dioxo-1λ^6-thiomorpholin-4-yl)-propoxy]-4-(4-methoxy-phenyl)-2-methyl-1,2,3,4-tetrahydro-isoquinoline]: the inhibitory constant (Ki) at human H3 receptor stood at 104 nM; on Rat SERT it was 3 nM.
For `C[C@H]1COCCN1CCCOc1ccc2c(c1)CN(C)CC2c1ccc(SC(F)(F)F)cc1` (stereo partly drawn) [Example 219, 2-Methyl-7-[3-(3S-methyl-morpholin-4-yl)-propoxy]-4-(4-trifluoromethylsulfanyl-phenyl)-1,2,3,4-tetrahydro-isoquinoline], the Ki came out at 33 nM at human H3 receptor and 39 nM at Rat SERT.
With `CN1Cc2cc(OCCCN3CCC(F)CC3)ccc2C(c2ccc(OC(F)(F)F)cc2)C1` (centres unmarked) [Example 49, 7-[3-(4-Fluoro-piperidin-1-yl)-propoxy]-2-methyl-4-(4-trifluoromethoxy-phenyl)-1,2,3,4-tetrahydro-isoquinoline], the Ki on human H3 receptor turned out to be 18 nM; on Rat SERT it was 14 nM.
Regarding `CSc1ccc(C2CN(C)Cc3cc(OCC4CN(CCF)C4)ccc32)cc1` (centres unmarked) [Example 239, 7-[1-(2-Fluoro-ethyl)-azetidin-3-ylmethoxy]-2-methyl-4-(4-methylsulfanyl-phenyl)-1,2,3,4-tetrahydro-isoquinoline], the Ki came to 30 nM on human H3 receptor and 2 nM at Rat SERT.
As for `COc1ccc(C2CN(C)Cc3cc(OC[C@H]4CN(C5CC5)CCO4)ccc32)cc1` (mixture of isomers) [Example 261, 7-(4-Cyclopropyl-morpholin-2R-ylmethoxy)-4-(4-methoxy-phenyl)-2-methyl-1,2,3,4-tetrahydro-isoquinoline], the Ki on human H3 receptor is 62 nM; on Rat SERT, 32 nM.
Regarding `COc1ccc(C2CN(C)Cc3cc(OCC4CCNCC4)ccc32)c(F)c1` (centres unmarked) [Example 82, 4-(2-Fluoro-4-methoxy-phenyl)-2-methyl-7-(piperidin-4-ylmethoxy)-1,2,3,4-tetrahydro-isoquinoline], the Ki on human H3 receptor was 64 nM; at Rat SERT, 6 nM.
Consider `CCCN1CCC(COc2ccc3c(c2)CN(C)CC3c2cccc(OC)c2)CC1` (centres unmarked) [Example 93, 4-(3-Methoxy-phenyl)-2-methyl-7-(1-propyl-piperidin-4-ylmethoxy) 1,2,3,4-tetrahydro-isoquinoline], for which the Ki came to 6 nM on human H3 receptor and 22 nM on Rat SERT.
Regarding `CCN1CCC(Oc2ccc3c(c2)CN(C)CC3c2cccc(OC)c2)CC1` (centres unmarked) [Example 100, 7-(1-Ethyl-piperidin-4-yloxy)-4-(3-methoxy-phenyl)-2-methyl-1,2,3,4-tetrahydro-isoquinoline], the Ki stood at 2 nM on human H3 receptor and 10 nM at Rat SERT.
On the same counts, the results for `COc1ccc(C2CN(C)Cc3cc(OCCCN4CCN(c5ccc(C(F)(F)F)cc5)CC4)ccc32)cc1` (centres unmarked) [Example 205, 4-(4-Methoxy-phenyl)-2-methyl-7-{3-[4-(4-trifluoromethyl-phenyl)-piperazin-1-yl]-propoxy}-1,2,3,4-tetrahydro-isoquinoline] are 2000 nM and 44 nM.
As to `COc1ccc(C2CN(C)Cc3cc(OCCC4CCCN4C)ccc32)cc1` (single isomer, unassigned) [Example 240A, 4-(4-Methoxy-phenyl)-2-methyl-7-[2-(1-methyl-pyrrolidin-2-yl)-ethoxy]-1,2,3,4-tetrahydro-isoquinoline], the Ki at human H3 receptor worked out at 3 nM; at Rat SERT it was 2 nM.
For `COc1ccc(C2CN(C)Cc3cc(OCC4CCN(C(=O)C(F)(F)F)CC4)ccc32)cc1` (centres unmarked) [Example 122, 2,2,2-Trifluoro-1-{4-[4-(4-methoxy-phenyl)-2-methyl-1,2,3,4-tetrahydro-isoquinolin-7-yloxymethyl]-piperidin-1-yl}-ethanone], in that order: 372 nM and 26 nM.
For `CCN1CCC(COc2ccc3c(c2)CN(C)CC3c2cccc(OC)c2)CC1` (centres unmarked) [Example 95, 7-(1-Ethyl-piperidin-4-ylmethoxy)-4-(3-methoxy-phenyl)-2-methyl-1,2,3,4-tetrahydro-isoquinoline], in that order: 2 nM and 15 nM.
On the same counts, the results for `CN1Cc2cc(OCCCN3CCC(F)CC3)ccc2C(c2ccc(-n3ccnc3)nc2)C1` (centres unmarked) [Example 192, 7-[3-(4-Fluoro-piperidin-1-yl)-propoxy]-4-(6-imidazol-1-yl-pyridin-3-yl)-2-methyl-1,2,3,4-tetrahydro-isoquinoline] are 3 nM and 9 nM.
Regarding `COc1cccc(C2CN(C)Cc3cc(OC4CCN(C5CCC5)CC4)ccc32)c1` (centres unmarked) [Example 99, 7-(1-Cyclobutyl-piperidin-4-yloxy)-4-(3-methoxy-phenyl)-2-methyl-1,2,3,4-tetrahydro-isoquinoline], the Ki on human H3 receptor amounted to 2 nM; at Rat SERT it was 20 nM.
Regarding `CN1Cc2cc(OCCCN3CCC(F)CC3)ccc2C(c2ccc(Sc3ccccc3)nc2)C1` (centres unmarked) [Example 191, 7-[3-(4-Fluoro-piperidin-1-yl)-propoxy]-2-methyl-4-(6-phenylsulfanyl-pyridin-3-yl)-1,2,3,4-tetrahydro-isoquinoline], the values for the inhibition constant Ki on human H3 receptor and on Rat SERT were 26 nM and 69 nM, respectively.
Turning to `CSc1ccc(C2CN(C)Cc3cc(OC4CCN(CC#N)CC4)ccc32)cc1` (centres unmarked) [Example 245, {4-[2-Methyl-4-(4-methylsulfanyl-phenyl)-1,2,3,4-tetrahydro-isoquinolin-7-yloxy]-piperidin-1-yl}-acetonitrile], the Ki on human H3 receptor is 336 nM; at Rat SERT it was 7 nM.
With `COCCNCCCOc1ccc2c(c1)CN(C)CC2c1ccc(OC)cc1` (centres unmarked) [Example 225, (2-Methoxy-ethyl)-{3-[4-(4-methoxy-phenyl)-2-methyl-1,2,3,4-tetrahydro-isoquinolin-7-yloxy]-propyl}-amine], the Ki on human H3 receptor is 46 nM; at Rat SERT, 1 nM.
As to `COc1ccc(C2CN(C)Cc3cc(OCCCN4C=NCCC4)ccc32)cc1` (centres unmarked) [Example 18, 7-[3-(5,6-Dihydro-4H-pyrimidin-1-yl)-propoxy]-4-(4-methoxy-phenyl)-2-methyl-1,2,3,4-tetrahydro-isoquinoline], the values for the inhibition constant Ki on human H3 receptor and on Rat SERT were 74 nM and 1 nM, respectively.
